Target: T1, IRAK4 (Homo sapiens, UniProt Q9NWZ3)
T1 sequence (Q9NWZ3 1-460): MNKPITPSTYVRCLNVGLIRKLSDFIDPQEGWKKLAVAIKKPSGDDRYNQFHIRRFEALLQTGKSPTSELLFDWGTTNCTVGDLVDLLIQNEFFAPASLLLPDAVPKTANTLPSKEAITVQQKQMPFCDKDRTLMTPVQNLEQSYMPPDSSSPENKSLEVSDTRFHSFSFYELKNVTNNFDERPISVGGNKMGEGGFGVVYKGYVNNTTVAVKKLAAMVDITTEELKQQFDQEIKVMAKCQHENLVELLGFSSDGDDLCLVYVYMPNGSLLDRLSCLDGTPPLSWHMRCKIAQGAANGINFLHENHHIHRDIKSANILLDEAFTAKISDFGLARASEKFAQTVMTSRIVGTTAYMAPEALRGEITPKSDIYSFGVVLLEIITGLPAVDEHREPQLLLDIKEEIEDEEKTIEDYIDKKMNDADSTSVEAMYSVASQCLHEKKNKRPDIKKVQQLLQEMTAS
Experiment: Hibit fluorescence detection of proteolysis (IRAK4-HiBiT in HEK293T cells)
Assay type: cell-based
Set-up: host or cells: HEK293T (ATCC)
Settings: for Dmax: HEK-293T; for DC50: IRAK4-HiBiT, HEK293T cells, 24 h
Method: Utilizing HiBiT tag technology, the HiBiT tag-containing sequence (Seq. ID. No. 1, Beijing Tsingke Biotech Co., Ltd.) was connected to the IRAK4 plasmid (Seq. ID. No. 2, Beijing Tsingke Biotech Co., Ltd.), and the plasmid was transfected into HEK293T cells (ATCC). […] The 6-well plate that was incubated overnight was taken out. After the plate was left at room temperature for 15 min, the obtained mixture was added dropwise to the 6-well plate. […] Culture was performed at 37°C and 5% CO2 for 24 h. The 384-well plate was taken out and equilibrated to room temperature. 40 µL of Nano-Glo® HiBiT Lytic Detection System (Promega N3030) was added to each well and incubated at room temperature for 15 min. […] Prism 9.3 software was used to perform fitting analysis for data, and non-linear fitting (non-liner inhibitor (Bell-shaped)) and four parameters (4 parameter) were used, and the parameters was as follows: Span1 = Plateau1−Dip [formula] Span2 = Plateau2−Dip [formula] Section1 = Span1/(1+10^(∧)((LogEC50_1−X)*nH1)) [formula] Section2 = Span2/(1+10^(∧)((X−LogEC50_2)*nH2)) [formula]
The equation was as follows: Y=Dip+Section1+Section2. • Seq. ID. No. 1 ([…]), other DNA, synthetic construct, sequence length 33; • Seq. ID. No. 2 [formula]

Row | Structure (SMILES) | Dmax | DC50
1 | CN(CC1CCN(CCC#Cc2cccc3c2n(C)c(=O)n3C2CCC(=O)NC2=O)CC1)C[C@H]1CC[C@H](n2cc(-n3cc(-c4cnn5ccc(N6CCOCC6)nc45)nn3)c(C(F)F)n2)CC1 (stereo partly shown) [Example 25] | < 60% | < 0.5 nM
2 | Cn1c(=O)n(C2CCC(=O)NC2=O)c2cccc(NCCC3CC4(C3)CN(C[C@H]3CC[C@H](n5cc(-n6cc(-c7cnn8ccc(N9CCOCC9)nc78)nn6)c(C(F)F)n5)CC3)C4)c21 (stereo partly shown) [Example 26, 3-(4-((2-(2-(((1r,4r)-4-(3-(difluoromethyl)-4-(4-(5-morpholinopyrazolo[1,5-a]pyrimidin-3-yl)-1H-1,2,3-triazol-1-yl)-1H-pyrazol-1-yl)cyclohexyl)methyl)-2-azaspiro[3.3]heptan-6-yl)ehtyl)amino)-3-methyl-2-oxo-2,3-dihydro-1H-benzo[d]imidazol-1-yl)piperidine-2,6-dione] | 70 to 80% | < 0.5 nM
3 | Cn1c(=O)n(C2CCC(=O)NC2=O)c2cccc(C#CC3CN(C[C@H]4CC[C@H](n5cc(-n6cc(-c7cnn8ccc(N9CCOCC9)nc78)nn6)c(C(F)F)n5)CC4)C3)c21 (stereo partly shown) [Example 27] | 60 to 70% | < 0.5 nM
4 | O=C1CCC(NC(=O)c2ccc(N3CCN(C[C@H]4CC[C@H](n5cc(-n6cc(-c7cnn8ccc(N9CCOCC9)nc78)nn6)c(C(F)F)n5)CC4)CC3)cc2F)C(=O)N1 (stereo partly shown) [Example 28] | 60 to 70% | > 5 nM
5 | Cn1c(=O)n(C2CCC(=O)NC2=O)c2cccc(C(=O)N3CCC(NC[C@H]4CC[C@H](n5cc(-n6cc(-c7cnn8ccc(N9CCOCC9)nc78)nn6)c(C(F)F)n5)CC4)CC3)c21 (stereo partly shown) [Example 29] | 70 to 80% | > 5 nM
6 | NC(=O)c1cnn2c(-c3cn(-c4cn([C@H]5CC[C@H](CN6CCN(c7ccc(C(=O)NC8CCC(=O)NC8=O)c(F)c7)CC6)CC5)nc4C(F)F)nn3)ccc2c1 (stereo partly shown) [Example 31] | 70 to 80% | > 5 nM
7 | Cn1c(=O)n(C2CCC(=O)NC2=O)c2cccc(N3CCC4(CCN(C[C@H]5CC[C@H](n6cc(-n7cc(-c8cnn9ccc(N%10CCOCC%10)nc89)nn7)c(C(F)F)n6)CC5)C4)C3)c21 (stereo partly shown) [Example 32, 3-(4-((1r,4r)-4-(3-(difluoromethyl)-4-(4-(5-morpholinopyrazolo[[1,5-a]pyrimidin-3-yl)-1H-1,2,3-triazol-1-yl)-1H-pyrazol-1-yl)cyclohexylmethyl)-2,7-diazaspiro[4.4]non-2-yl)-3-methyl-2-oxo-2,3-dihydro-1H-benzo[d]imidazol-1-yl)piperidine-2,6-dione] | 70 to 80% | < 0.5 nM
8 | Cn1c(=O)n(C2CCC(=O)NC2=O)c2cccc(N3CC4CN(C[C@H]5CC[C@H](n6cc(-n7cc(-c8cnn9ccc(N%10CCOCC%10)nc89)nn7)c(C(F)F)n6)CC5)CC4C3)c21 (stereo partly drawn) [Example 33, 3-(4-((1R,4R)-4-(3-(difluoromethyl)-4-(4-(5-morpholinopyrazolo[[1,5-a]pyrimidin-3-yl)-1H-1,2,3-triazol-1-yl)-1H-pyrazol-1-yl)cyclohexyl)methylhexahydropyrrolo[3,4-c]pyrrol-2(1H)-yl)-3-methyl-2-oxo-2,3-dihydro-1H-benzo[d]imidazol-1-yl)piperidine-2,6-dione] | 60 to 70% | < 0.5 nM
9 | Cn1c(=O)n(C2CCC(=O)NC2=O)c2cccc(N3CCOC4(CCN(C[C@H]5CC[C@H](n6cc(-n7cc(-c8cnn9ccc(N%10CCOCC%10)nc89)nn7)c(C(F)F)n6)CC5)CC4)C3)c21 (stereo partly shown) [Example 38] | < 60% | < 0.5 nM
10 | Cn1c(=O)n(C2CCC(=O)NC2=O)c2cccc(N3CCN(C4CCN(C[C@H]5CC[C@H](n6cc(-n7cc(-c8cnn9ccc(N%10CCOCC%10)nc89)nn7)c(C(F)F)n6)CC5)CC4)CC3)c21 (stereo partly shown) [Example 40] | > 80% | < 0.5 nM
11 | Cn1c(=O)n(C2CCC(=O)NC2=O)c2cccc(N3CCC4(CC3)CN(C[C@H]3CC[C@H](n5cc(-n6cc(-c7cnn8ccc(N9CCOCC9)nc78)nn6)c(C(F)F)n5)CC3)CCO4)c21 (stereo partly shown) [Example 41] | 70 to 80% | 1 to 5 nM
12 | Cn1c(=O)n(C2CCC(=O)NC2=O)c2cccc(N3CC(N4CCN(C[C@H]5CC[C@H](n6cc(-n7cc(-c8cnn9ccc(N%10CCOCC%10)nc89)nn7)c(C(F)F)n6)CC5)CC4)C3)c21 (stereo partly shown) [Example 42, 3-(4-(3-(4-(((1r,4r)-4-(3-(difluoromethyl)-4-(4-(5-morpholinopyrazolo[1,5-a]pyrimidin-3-yl)-1H-1,2,3-triazol-1-yl)-1H-pyrazol-1-yl)cyclohexyl)methyl)piperazin-1-yl)azetidin-1-yl)-3-methyl-2-oxo-2,3-dihydro-1H-benzo[d]imidazol-1-yl)piperidine-2,6-dione] | < 60% | < 0.5 nM
13 | Cn1c(=O)n(C2CCC(=O)NC2=O)c2cccc(N3CC4(CCN(C[C@H]5CC[C@H](n6cc(-n7cc(-c8cnn9ccc(N%10CCOCC%10)nc89)nn7)c(C(F)F)n6)CC5)CC4)C3)c21 (stereo partly shown) [Example 43, 3-(4-(7-(((1r,4r)-4-(3-(difluoromethyl)-4-(4-(5-morpholinopyrazolo[1,5-a]pyrimidin-3-yl)-1H-1,2,3-triazol-1-yl)-1H-pyrazol-1-yl)cyclohexyl)methyl)-2,7-diazaspiro[3.5]nonan-2-yl)-3-methyl-2-oxo-2,3-dihydro-1H-benzo[d]imidazol-1-yl)piperidine-2,6-dione] | > 80% | < 0.5 nM
14 | Cn1c(=O)n(C2CCC(=O)NC2=O)c2cccc(N3CCN(C4CN(C[C@H]5CC[C@H](n6cc(-n7cc(-c8cnn9ccc(N%10CCOCC%10)nc89)nn7)c(C(F)F)n6)CC5)C4)CC3)c21 (stereo partly shown) [Example 44] | > 80% | < 0.5 nM
15 | Cn1c(=O)n(C2CCC(=O)NC2=O)c2cccc(N3CCC4(CCN(C[C@H]5CC[C@H](n6cc(-n7cc(-c8cnn9ccc(N%10CCOCC%10)nc89)nn7)c(C(F)F)n6)CC5)CC4)C3)c21 (stereo partly shown) [Example 45] | 70 to 80% | < 0.5 nM
16 | C[C@@H]1CN(C[C@H]2CC[C@H](n3cc(-n4cc(-c5cnn6ccc(N7CCOCC7)nc56)nn4)c(C(F)F)n3)CC2)CCN1c1cccc2c1n(C)c(=O)n2C1CCC(=O)NC1=O (stereo partly drawn) [Example 46, 3-(4-((R)-4-(((1r,4R)-4-(3-(difluoromethyl)-4-(4-(5-morpholinopyrazolo[1,5-a]pyrimidin-3-yl)-1H-1,2,3-triazol-1-yl)-1H-pyrazol-1-yl)cyclohexyl)methyl)-2-methylpiperazin-1-yl)-3-methyl-2-oxo-2,3-dihydro-1H-benzo[d]imidazol-1-yl)piperidine-2,6-dione] | 70 to 80% | < 0.5 nM
17 | Cn1c(=O)n(C2CCC(=O)NC2=O)c2cccc(N3CCC4(CC3)CN(C[C@H]3CC[C@H](n5cc(-n6cc(-c7cnn8ccc(N9CCOCC9)nc78)nn6)c(C(F)F)n5)CC3)C4)c21 (stereo partly shown) [Example 47] | 70 to 80% | < 0.5 nM
18 | Cn1c(=O)n(C2CCC(=O)NC2=O)c2cccc(N3C4CCC3CN(C[C@H]3CC[C@H](n5cc(-n6cc(-c7cnn8ccc(N9CCOCC9)nc78)nn6)c(C(F)F)n5)CC3)C4)c21 (stereo partly shown) [Example 48, 3-(4-((1r,4r)-4-(3-(difluoromethyl)-4-(4-(5-morpholinopyrazolo[[1,5-a]pyrimidin-3-yl)-1H-1,2,3-triazol-1-yl)-1H-pyrazol-1-yl)cyclohexyl)-3,8-diazabicyclo[3.2.1]oct-8-yl)-3-methyl-2-oxo-2,3-dihydro-1H-benzo[d]imidazol-1-yl)piperidine-2,6-dione] | 60 to 70% | > 5 nM
19 | Cn1c(=O)n(C2CCC(=O)NC2=O)c2cccc(N3CC4CCC(C3)N4C[C@H]3CC[C@H](n4cc(-n5cc(-c6cnn7ccc(N8CCOCC8)nc67)nn5)c(C(F)F)n4)CC3)c21 (stereo partly drawn) [Example 49, 3-(4-((1R,4R)-4-(3-(difluoromethyl)-4-(4-(5-morpholinopyrazolo[[1,5-a]pyrimidin-3-yl)-1H-1,2,3-triazol-1-yl)-1H-pyrazol-1-yl)cyclohexyl)-3,8-diazabicyclo[3.2.1]oct-3-yl)-3-methyl-2-oxo-2,3-dihydro-1H-benzo[d]imidazol-1-yl)piperidine-2,6-dione] | 70 to 80% | 1 to 5 nM
20 | C[C@@H]1CN(c2cccc3c2n(C)c(=O)n3C2CCC(=O)NC2=O)CCN1C[C@H]1CC[C@H](n2cc(-n3cc(-c4cnn5ccc(N6CCOCC6)nc45)nn3)c(C(F)F)n2)CC1 (stereo partly shown) [Example 50] | 60 to 70% | 0.5 to 1 nM
